The results in this text go back to patent publication US5681829A, “Class of phosphocholine derivatives having antifungal activity” (Shaman Pharmaceuticals, Inc., priority 1995, dated 1997).

Common to all, as to type: cell-based
One assay relates to fungi. Description: antifungal activity stated in words.
In a further assay the test system is C. albicans. Description: antifungal screening test of analogs, C. albicans (CA). The following applies: for IC (25-75%): read-out: Partial inhibition. As for the experimental part: (§1) The analog compounds were tested for their activity against C. albicans, C. neoformans, A. fumigatus and T. rubrum. Partial inhibition of the fungus of between 25 to 75% was measured along with the total inhibition (MIC) by these anolog compounds. A description of the partial inhibition measurement can be found in R. L. Stiller, et al The Journal of Infectious Diseases, 147, No. 6 (1983). The structure of these analog compounds is as follows. [drawing 15] wherein R is the group identified in table 2.

The next assay relates to C. neoformans. As to the kind of experiment: antifungal screening test of analogs, C. neoformans (CN). The following applies: for IC (25-75%): read-out: Partial inhibition. As for the experimental part: as §1
A further assay concerns A. fumigatus. As to the kind of experiment: antifungal screening test of analogs, A. fumigatus (AF). The following applies: for IC (25-75%): read-out: Partial inhibition. On the procedure:
as §1

Another assay concerns T. rubrum. Description: antifungal screening test of analogs, T. rubrum (TR). The following applies: for IC (25-75%): read-out: Partial inhibition. As for the experimental part:
as §1

Values after ≈ are worked out from the molar mass of the structure shown. Like-named read-outs stand apart in the source and are kept apart here.

For `C[N+](C)(C)CCOP(=O)([O-])OCCCCCCCCCCCCCCCCCCCCCCOP(=O)([O-])OCC[N+](C)(C)C` [1,22-docosandiol bisphosphocholine ester], the antifungal activity entry in the assay with fungi is reported as “one of the most active antifungal compounds”.
The same measure, in the same setting: the same measure for `CCCCCCCCCCCCCCCC(=O)O[C@H](COC1O[C@H](CO)[C@@H](O)[C@H](O)[C@H]1O)COP(=O)([O-])OCC[N+](C)(C)C` (some centres unmarked) [2-palmitoyl-1-O-glucopyranosyllysolecithin]: “relatively active antifungal agent similar in activity to L-a-Lysophosphatidyl inositol”.
In general, MIC refers to the lowest concentration that inhibits growth of the organism. With `CCCCCCCCCC(=O)OC[C@@H](O)COP(=O)([O-])OCC[N+](C)(C)C` [L-a-Lysophosphatidylcholine Decanoyl (C:10)], the MIC with C. albicans (Candida albicans) is above 500 µg/mL; against C. neoformans (Cryptococcus neoformans), 500 µg/mL (≈ 1220 µM); in the assay on A. fumigatus (Aspergillus fumigatus) it was above 500 µg/mL; in the assay with T. rubrum (Trichophyton rubrum) it was above 500 µg/mL. For the same compound, the IC (25-75%) with C. albicans (Candida albicans) is 250 µg/mL; with C. neoformans (Cryptococcus neoformans), 250 µg/mL; in the assay on A. fumigatus (Aspergillus fumigatus) it was above 500 µg/mL; with T. rubrum (Trichophyton rubrum), above 500 µg/mL.
Turning to `CCCCCCCCCCCCCCCCC(=O)OC[C@@H](O)COP(=O)([O-])OCC[N+](C)(C)C` [L-a-Lysophosphatidylcholine Heptadecanoyl (C17:0)], the IC (25-75%) in the assay with C. albicans (Candida albicans, CA, partial inhibition of between 25 to 75%) stood at 16 µg/mL; with A. fumigatus (Aspergillus fumigatus, AF, partial inhibition of between 25 to 75%) it was 31 µg/mL; with T. rubrum (Trichophyton rubrum, TR, partial inhibition of between 25 to 75%), 31 µg/mL. In addition, the MIC in the assay with C. albicans (Candida albicans, CA, total inhibition, read-out: MIC) was 63 µg/mL (≈ 124 µM); with C. neoformans (Cryptococcus neoformans, CN, total inhibition, read-out: MIC), 16 µg/mL (≈ 31.4 µM); in the assay on A. fumigatus (Aspergillus fumigatus, AF, total inhibition, read-out: MIC), above 1000 µg/mL; with T. rubrum (Trichophyton rubrum, TR, total inhibition, read-out: MIC) it was 63 µg/mL (≈ 124 µM).
As to `CCCCCCCCCCCC(=O)OC[C@@H](O)COP(=O)([O-])OCC[N+](C)(C)C` [L-a-Lysophosphatidylcholine Lauroyl (C12:0)], the MIC worked out at 500 µg/mL (≈ 1140 µM) in the assay on C. albicans (Candida albicans), 125 µg/mL (≈ 284 µM) in the assay with C. neoformans (Cryptococcus neoformans), 125 µg/mL (≈ 284 µM) against A. fumigatus (Aspergillus fumigatus) and 250 µg/mL (≈ 569 µM) against T. rubrum (Trichophyton rubrum). Further, the IC (25-75%) with C. neoformans (Cryptococcus neoformans) stood at 31 µg/mL; in the assay with T. rubrum (Trichophyton rubrum), 63 µg/mL.
As for `CCCCCCCCCCCCCC(=O)OC[C@@H](O)COP(=O)([O-])OCC[N+](C)(C)C` [L-a-Lysophosphatidylcholine Myristoyl (C14:0)], the MIC turned out to be 31 µg/mL (≈ 66.3 µM) in the assay on C. albicans (Candida albicans), 31 µg/mL (≈ 66.3 µM) in the assay on C. neoformans (Cryptococcus neoformans), 125 µg/mL (≈ 267 µM) in the assay on A. fumigatus (Aspergillus fumigatus) and 31 µg/mL (≈ 66.3 µM) in the assay on T. rubrum (Trichophyton rubrum). Moreover, the IC (25-75%) with A. fumigatus (Aspergillus fumigatus) was 31 µg/mL.
Turning to `CCCCCCCC/C=C\CCCCCCCC(=O)OC[C@@H](O)COP(=O)([O-])OCC[N+](C)(C)C` [L-a-Lysophosphatidylcholine Oleoyl (C18:1,[Cis]-9)], the MIC in the assay with C. albicans (Candida albicans) is 31 µg/mL (≈ 59.4 µM); against C. neoformans (Cryptococcus neoformans) it was 31 µg/mL (≈ 59.4 µM); in the assay on A. fumigatus (Aspergillus fumigatus), 63 µg/mL (≈ 121 µM); with T. rubrum (Trichophyton rubrum) it was 31 µg/mL (≈ 59.4 µM). For the same compound, the IC (25-75%) with A. fumigatus (Aspergillus fumigatus) came out at 31 µg/mL.
On to `CCCCCCCCCCCCCCCC(=O)OC[C@@H](O)COP(=O)([O-])OCC[N+](C)(C)C` [L-a-Lysophosphatidylcholine Palmitoyl (C16:0)], for which the MIC is 31 µg/mL (≈ 62.5 µM) against C. albicans (Candida albicans), 31 µg/mL (≈ 62.5 µM) in the assay on C. neoformans (Cryptococcus neoformans), 63 µg/mL (≈ 127 µM) against A. fumigatus (Aspergillus fumigatus) and 500 µg/mL (≈ 1010 µM) with T. rubrum (Trichophyton rubrum). Also, the IC (25-75%) with A. fumigatus (Aspergillus fumigatus) came to 31 µg/mL; in the assay on T. rubrum (Trichophyton rubrum), 63 µg/mL.
For the compound `CCCCCCCCCCCCCCCCCC(=O)OC[C@@H](O)COP(=O)([O-])OCC[N+](C)(C)C` [L-a-Lysophosphatidylcholine Stearoyl (C18:0)], the MIC against C. albicans (Candida albicans), in the assay on C. neoformans (Cryptococcus neoformans), against A. fumigatus (Aspergillus fumigatus) and with T. rubrum (Trichophyton rubrum) was above 250 µg/mL each time. Besides, the IC (25-75%) in the assay with C. albicans (Candida albicans) is above 250 µg/mL; in the assay with C. neoformans (Cryptococcus neoformans), 31 µg/mL; with A. fumigatus (Aspergillus fumigatus), above 250 µg/mL; with T. rubrum (Trichophyton rubrum), above 250 µg/mL.
On to `CCCCCCCC/C=C\CCCCCCCC(=O)OC[C@@H](O)COP(=O)(O)OCCN` [L-a-Lysophosphatidylethanol Amine, Oleoyl (C18:1,[cis]-9)], for which the MIC in the assay on C. albicans (Candida albicans), against C. neoformans (Cryptococcus neoformans), against A. fumigatus (Aspergillus fumigatus) and against T. rubrum (Trichophyton rubrum) was above 100 µg/mL each time. Besides, the IC (25-75%) in the assay with C. albicans (Candida albicans) is above 100 µg/mL; with C. neoformans (Cryptococcus neoformans) it was 100 µg/mL; with A. fumigatus (Aspergillus fumigatus) it was above 100 µg/mL; in the assay on T. rubrum (Trichophyton rubrum), above 100 µg/mL.
In the case of L-a-Lysophosphatidyl inositol, the Partial inhibition in the assay on C. albicans (CA, partial inhibition of between 25 to 75%) is above 100 µg/mL; with C. neoformans (CN, partial inhibition of between 25 to 75%), 100 µg/mL; with T. rubrum (TR, partial inhibition of between 25 to 75%) it was above 100 µg/mL. The MIC was above 100 µg/mL against C. albicans (CA, total inhibition); above 100 µg/mL with C. neoformans (CN, total inhibition); 100 µg/mL in the assay with A. fumigatus (AF, total inhibition); above 100 µg/mL against T. rubrum (TR, total inhibition).
